The SangsterLogP compilation

Test: from Kabankin, S.; Boldeskul, E.; Trinus, P.; Protsenko, D.; Landau, A. (1982). Physicochemical characteristics, antitumor activity and quantitative structure-activity relations for phosphoric …
Conditions: pH 7.4

| SMILES | logD |
| --- | --- |
| O=C(NP(=O)(N1CC1)N1CC1)c1ccccc1Br | 0.45 |
| CCOc1cccc(C(=O)NP(=O)(N2CC2)N2CC2)c1 | 0.42 |
| O=C(NP(=O)(N1CC1)N1CC1)c1ccc(F)cc1 | 0.13 |
| O=C(NP(=O)(N1CC1)N1CC1)c1ccc(Cl)cc1 | 0.46 |
| C=CCc1ccc(C(=O)NP(=O)(N2CC2)N2CC2)cc1 | 0.69 |
| O=C(NP(=O)(N1CC1)N1CC1)c1cccc(Br)c1 | 0.88 |
| O=C(NP(=O)(N1CC1)N1CC1)c1cc(I)cc(I)c1 | 2.52 |
| O=C(NP(=O)(N1CC1)N1CC1)c1cc(Br)cc(Br)c1 | 1.15 |
| COc1cccc(C(=O)NP(=O)(N2CC2)N2CC2)c1 | 0.04 |
| O=C(NP(=O)(N1CC1)N1CC1)c1cc(I)cc(I)c1I | 0.81 |
| COc1ccc(C(=O)NP(=O)(N2CC2)N2CC2)cc1 | -0.02 |
| O=C(NP(=O)(N1CC1)N1CC1)c1cccc(I)c1 | 1.37 |
| C=CCc1cccc(C(=O)NP(=O)(N2CC2)N2CC2)c1 | 0.65 |
| O=C(NP(=O)(N1CC1)N1CC1)c1ccccc1 | -0.15 |
| O=C(NP(=O)(N1CC1)N1CC1)c1ccc(I)cc1 | 1.63 |
